Experimental data taken from ChEMBL document CHEMBL1122305, “Adriamycin analogues. Preparation and biological evaluation of some novel 14-thiaadriamycins” (1983).

Legend:
L1210 [1] = assay: Percent increase in life span relative to untreated controls in murine L1210 leukemia infected B6D2F1J male mice at […] optimal dose; assay type: functional, Mus musculus
CCRF-CEM = assay: In vitro growth inhibition against CCRF-CEM (human lymphoblastic leukemic) cell line.; assay type: functional; conditions: read-out: ID50 (the source's name)
L1210 [2] = assay: Percent increase in life span relative to untreated controls in murine L1210 leukemia infected B6D2F1J male mice at 60 mg/kg optimal dose; assay type: functional; conditions: Mus musculus
L1210 [3] = assay: Percent increase in life span relative to untreated controls in murine L1210 leukemia infected B6D2F1J male mice at 30 mg/kg optimal dose; assay type: functional; conditions: Mus musculus
L1210 [4] = assay: Percent increase in life span relative to untreated controls in murine L1210 leukemia infected B6D2F1J male mice at 10.13 mg/kg optimal dose; assay type: functional; conditions: Mus musculus
L1210 [5] = assay: Percent increase in life span relative to untreated controls in murine L1210 leukemia infected B6D2F1J male mice at 50 mg/kg optimal dose; assay type: functional; conditions: Mus musculus
L1210 [6] = assay: Percent increase in life span relative to untreated controls in murine L1210 leukemia infected B6D2F1J male mice at 101.25 mg/kg optimal dose; assay type: functional; conditions: Mus musculus
L1210 [7] = assay: Percent increase in life span relative to untreated controls in murine L1210 leukemia infected B6D2F1J male mice at 4 mg/kg optimal dose; assay type: functional; conditions: Mus musculus

Row | SMILES | IC50 (CCRF-CEM) [µM] | also measured
1 | CCCCCSCC(=O)[C@]1(O)Cc2c(O)c3c(c(O)c2[C@@H](OC2CC(NC(=O)C(F)(F)F)C(O)C(C)O2)C1)C(=O)c1c(OC)cccc1C3=O (stereo not given in full) | > 13.8 | ILS (L1210 [1]): 10%
2 | CCCCCCCCCCCCSCC(=O)[C@]1(O)Cc2c(O)c3c(c(O)c2[C@@H](OC2CC(NC(=O)C(F)(F)F)C(O)C(C)O2)C1)C(=O)c1c(OC)cccc1C3=O (stereo not given in full) | > 15 | ILS (L1210 [1]): 0%
3 | COc1cccc2c1C(=O)c1c(O)c3c(c(O)c1C2=O)C[C@@](O)(C(=O)C[Se]c1ccccc1)C[C@@H]3OC1CC(NC(=O)C(F)(F)F)C(O)C(C)O1 (stereo not given in full) | 2.8 | ILS at 60 mg/kg (L1210 [2]): 66%
4 | CCOC(=O)CSCC(=O)[C@]1(O)Cc2c(O)c3c(c(O)c2[C@@H](OC2CC(N)C(O)C(C)O2)C1)C(=O)c1c(OC)cccc1C3=O (stereo not given in full) | 0.23 | ILS at 30 mg/kg (L1210 [3]): 50%
5 | CCCCCCCCCCCCSCC(=O)[C@]1(O)Cc2c(O)c3c(c(O)c2[C@@H](OC2CC(N)C(O)C(C)O2)C1)C(=O)c1c(OC)cccc1C3=O (stereo not given in full) | 1.44 | ILS at 10.13 mg/kg (L1210 [4]): 11%
6 | COc1cccc2c1C(=O)c1c(O)c3c(c(O)c1C2=O)C[C@@](O)(C(=O)CSCCCCCCCCCSCC(=O)[C@]1(O)Cc2c(O)c4c(c(O)c2[C@H](OC2CC(N)C(O)C(C)O2)C1)C(=O)c1c(OC)cccc1C4=O)C[C@@H]3OC1CC(N)C(O)C(C)O1 (stereo not given in full) | 1.23 | 
7 | COc1cccc2c1C(=O)c1c(O)c3c(c(O)c1C2=O)C[C@@](O)(C(=O)C[Se]c1ccccc1)C[C@@H]3OC1CC(N)C(O)C(C)O1 (stereo not given in full) | 0.4 | 
8 | COc1cccc2c1C(=O)c1c(O)c3c(c(O)c1C2=O)C[C@@](O)(C(=O)CSCCCSCC(=O)[C@]1(O)Cc2c(O)c4c(c(O)c2[C@@H](OC2CC(N)C(O)C(C)O2)C1)C(=O)c1c(OC)cccc1C4=O)C[C@@H]3OC1CC(N)C(O)C(C)O1 (stereo not given in full) | 0.83 | 
9 | CCCCSCC(=O)[C@]1(O)Cc2c(O)c3c(c(O)c2[C@@H](OC2CC(NC(=O)C(F)(F)F)C(O)C(C)O2)C1)C(=O)c1c(OC)cccc1C3=O (stereo not given in full) | 5.62 | ILS (L1210 [1]): 0%
10 | CCOC(=O)CSCC(=O)[C@]1(O)Cc2c(O)c3c(c(O)c2[C@@H](OC2CC(NC(=O)C(F)(F)F)C(O)C(C)O2)C1)C(=O)c1c(OC)cccc1C3=O (stereo not given in full) | 5.33 | ILS (L1210 [1]): 0%
11 | COc1cccc2c1C(=O)c1c(O)c3c(c(O)c1C2=O)C[C@@](O)(C(=O)CSCCSCC(=O)[C@]1(O)Cc2c(O)c4c(c(O)c2[C@H](OC2CC(N)C(O)C(C)O2)C1)C(=O)c1c(OC)cccc1C4=O)C[C@@H]3OC1CC(N)C(O)C(C)O1 (stereo not given in full) | 1.06 | 
12 | CCCCC(=O)OCC(=O)[C@]1(O)Cc2c(O)c3c(c(O)c2[C@@H](OC2CC(NC(=O)C(F)(F)F)C(O)C(C)O2)C1)C(=O)c1c(OC)cccc1C3=O (stereo not given in full) | 0.24 | ILS at 50 mg/kg (L1210 [5]): > 455%
13 | COc1cccc2c1C(=O)c1c(O)c3c(c(O)c1C2=O)C[C@@](O)(C(=O)CSc1ccccc1)C[C@@H]3OC1CC(NC(=O)C(F)(F)F)C(O)C(C)O1 (stereo not given in full) | > 13.7 | ILS at 101.25 mg/kg (L1210 [6]): 10%
14 | CCCCSCC(=O)[C@]1(O)Cc2c(O)c3c(c(O)c2[C@@H](OC2CC(N)C(O)C(C)O2)C1)C(=O)c1c(OC)cccc1C3=O (stereo not given in full) | 0.25 | ILS at 10.13 mg/kg (L1210 [4]): 33%
15 | COc1cccc2c1C(=O)c1c(O)c3c(c(O)c1C2=O)C[C@@](O)(C(=O)CSc1ccccc1)C[C@@H]3OC1CC(N)C(O)C(C)O1 (stereo not given in full) | 0.87 | ILS at 10.13 mg/kg (L1210 [4]): 22%
16 | COc1cccc2c1C(=O)c1c(O)c3c(c(O)c1C2=O)C[C@@](O)(C(=O)CO)C[C@@H]3O[C@H]1C[C@H](N)[C@H](O)[C@H](C)O1 [DOXORUBICIN] | 0.066 | ILS at 4 mg/kg (L1210 [7]): 50%
17 | CCCCCSCC(=O)[C@]1(O)Cc2c(O)c3c(c(O)c2[C@@H](OC2CC(N)C(O)C(C)O2)C1)C(=O)c1c(OC)cccc1C3=O (stereo not given in full) | 0.95 | ILS at 10.13 mg/kg (L1210 [4]): 33%
